Test results: patent publication US20100311729A1, “Substituted imidazopyridazines and pyrrolopyrimidines as lipid kinase inhibitors” (priority 2007, published 2010)

Columns and labels:
Format in all cases: biochemical
PI3K beta = target: T1, PI3K beta (Homo sapiens, UniProt P42338); assay: PI3 kinase assay (Kinase-Glo luminescence), PI3K beta; conditions: Enzymatic Data; read-out: PI3K beta IC50 [umol]
T1 construct: for the full-length p110-b subunit are generated and fused by overlapping PCR; His tag (C); made in house; host or cells: baculovirus; Tn5 (Trichoplusia ni) or TiniPro insect cells
T1 sequence (P42338 with tags, fused parts or gaps limits assumed): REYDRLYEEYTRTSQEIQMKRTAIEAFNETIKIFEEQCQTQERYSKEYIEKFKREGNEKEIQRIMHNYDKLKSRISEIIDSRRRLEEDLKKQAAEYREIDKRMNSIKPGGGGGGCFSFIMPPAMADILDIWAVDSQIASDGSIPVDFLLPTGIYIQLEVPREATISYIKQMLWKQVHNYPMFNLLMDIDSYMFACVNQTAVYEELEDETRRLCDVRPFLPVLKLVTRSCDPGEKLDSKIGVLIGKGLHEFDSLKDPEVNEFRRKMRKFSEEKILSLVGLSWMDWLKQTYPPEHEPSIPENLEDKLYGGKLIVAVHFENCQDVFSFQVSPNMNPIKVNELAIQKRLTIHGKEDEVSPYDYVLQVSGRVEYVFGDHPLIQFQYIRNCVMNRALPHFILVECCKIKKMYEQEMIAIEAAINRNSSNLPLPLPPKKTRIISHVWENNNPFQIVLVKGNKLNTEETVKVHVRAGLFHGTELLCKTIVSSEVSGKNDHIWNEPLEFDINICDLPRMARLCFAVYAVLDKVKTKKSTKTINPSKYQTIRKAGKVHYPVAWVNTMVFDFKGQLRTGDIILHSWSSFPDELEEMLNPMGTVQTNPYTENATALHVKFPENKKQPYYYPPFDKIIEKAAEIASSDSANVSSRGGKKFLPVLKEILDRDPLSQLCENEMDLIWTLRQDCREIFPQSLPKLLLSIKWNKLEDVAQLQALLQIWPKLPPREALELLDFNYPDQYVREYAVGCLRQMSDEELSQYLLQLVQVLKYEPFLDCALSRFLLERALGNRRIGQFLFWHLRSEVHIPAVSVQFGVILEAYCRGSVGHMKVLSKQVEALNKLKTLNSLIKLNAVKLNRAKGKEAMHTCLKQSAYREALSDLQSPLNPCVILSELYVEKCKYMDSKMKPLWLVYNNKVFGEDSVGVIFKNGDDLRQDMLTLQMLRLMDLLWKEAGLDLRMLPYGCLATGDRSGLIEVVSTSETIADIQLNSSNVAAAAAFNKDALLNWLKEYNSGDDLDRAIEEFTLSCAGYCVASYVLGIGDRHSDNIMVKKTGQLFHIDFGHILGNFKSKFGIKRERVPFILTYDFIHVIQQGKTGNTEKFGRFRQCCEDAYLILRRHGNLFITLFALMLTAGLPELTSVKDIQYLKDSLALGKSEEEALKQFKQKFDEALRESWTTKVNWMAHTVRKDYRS
Protocol: (§1) In a more preferred assay, the kinase reaction is performed in a final volume of 10 μL per well of a low volume non binding CORNING, 384 well black plate (Cat. No. #3676). The final concentrations of ATP and phosphatidyl inositol (PI) in the assay are 1 μM and 10 μg/mL respectively. The reaction is started by the addition of ATP.
(§2) The components of the assay are added per well as follows:
(§3) 50 nL test compounds in 90% DMSO per well, in columns 1-20, 8 concentrations (1/3 and 1/3.33 serial dilution step) in single. • Low control: 50 nL of 90% DMSO in half the wells of columns 23-24 (0.45% in final). • High control: 50 nL of reference compound (e.g. compound of Example 7 in WO 2006/122806, incorporated by reference hereinin that regard) in the other half of columns 23-24 (2.5 μM in final). • Standard: 50 nL of reference compound as just mentioned diluted as the test compounds in columns 21-22 • 20 mL ‘buffer’ are prepared per assay: • 200 μL of 1M TRIS HCl pH7.5 (10 mM in final) • 60 μL of 1M MgCl2 (3 mM in final) • 500 μL of 2M NaCl (50 mM in final) • 100 μL of 10% CHAPS (0.05% in final) • 200 μL of 100 mM DTT (1 mM in final) • 18.94 mL of nanopure water • 10 mL ‘PI’ are prepared per assay: • 200 μL of 1 mg/ml L-alpha-Phosphatidylinositol (Liver Bovine, Avanti Polar Lipids Cat. No. 840042C MW=909.12) prepared in 3% OctylGlucoside (10 μg/ml in final) • 9.8 mL of ‘buffer’ • 10 mL ‘ATP’ are prepared per assay: • 6.7 μL of 3 mM stock of ATP giving a final concentration of 1 μM per well • 10 mL of ‘buffer’ • 2.5 mL of each PI3K construct are prepared per assay in ‘PI’ with the following final concentration : • 10 nM PI3K alfa B-1075 • 25 nM beta BV-949 • 10 nM delta BV-1060 • 150 nM gamma BV-950 • 5 μL of ‘PI/PI3K’ are added per well. • 5 μl ‘ATP’ are added per well to start the reaction. • The plates are then incubated at room temperature for 60 minutes (alfa, beta, delta) or 120 minutes (gamma). • The reaction is terminated by the addition of 10 μL Kinase-Glo (Promega Cat. No. #6714). • The assay plates are read after 10 minutes in Synergy 2 reader (BioTek, Vermont USA) with an integration time of 100 milliseconds and sensitivity set to 191. • Output : The High control is around 60'000 counts and the Low control is 30'000 or lower • This luminescence assay gives a useful Z′ ratio between 0.4 and 0.7
(§4) […] is determined by a four parameter curve fitting routine that comes aloneg with “excel fit”. A 4 Parameter logistic equation is used to calculate IC50 values (IDBS XLfit) of the percentage inhibition of each compound at 8 concentrations (usually 10, 3.0, 1.0, 0.3, 0.1, 0.030, 0.010 and […]). Alternatively, IC50 values are calculated using idbsXLfit model 204, which is a 4 parameter logistic model.
(§5) Testing with the following kinases in the test system mentioned above, with the kinases given in the following tables, the following IC 50 data can be obtained: […]

PI3K delta = target: T2, PI3K delta (Homo sapiens, UniProt O00329); assay: PI3 kinase assay (Kinase-Glo luminescence), PI3K delta; conditions: Enzymatic Data; read-out: PI3K delta IC50 [umol]
T2 construct: for the full-length p110-d subunit are generated and fused by overlapping PCR; His tag (C); made in house; host or cells: baculovirus; Tn5 (Trichoplusia ni) or TiniPro insect cells
T2 sequence (O00329 with tags, fused parts or gaps limits assumed): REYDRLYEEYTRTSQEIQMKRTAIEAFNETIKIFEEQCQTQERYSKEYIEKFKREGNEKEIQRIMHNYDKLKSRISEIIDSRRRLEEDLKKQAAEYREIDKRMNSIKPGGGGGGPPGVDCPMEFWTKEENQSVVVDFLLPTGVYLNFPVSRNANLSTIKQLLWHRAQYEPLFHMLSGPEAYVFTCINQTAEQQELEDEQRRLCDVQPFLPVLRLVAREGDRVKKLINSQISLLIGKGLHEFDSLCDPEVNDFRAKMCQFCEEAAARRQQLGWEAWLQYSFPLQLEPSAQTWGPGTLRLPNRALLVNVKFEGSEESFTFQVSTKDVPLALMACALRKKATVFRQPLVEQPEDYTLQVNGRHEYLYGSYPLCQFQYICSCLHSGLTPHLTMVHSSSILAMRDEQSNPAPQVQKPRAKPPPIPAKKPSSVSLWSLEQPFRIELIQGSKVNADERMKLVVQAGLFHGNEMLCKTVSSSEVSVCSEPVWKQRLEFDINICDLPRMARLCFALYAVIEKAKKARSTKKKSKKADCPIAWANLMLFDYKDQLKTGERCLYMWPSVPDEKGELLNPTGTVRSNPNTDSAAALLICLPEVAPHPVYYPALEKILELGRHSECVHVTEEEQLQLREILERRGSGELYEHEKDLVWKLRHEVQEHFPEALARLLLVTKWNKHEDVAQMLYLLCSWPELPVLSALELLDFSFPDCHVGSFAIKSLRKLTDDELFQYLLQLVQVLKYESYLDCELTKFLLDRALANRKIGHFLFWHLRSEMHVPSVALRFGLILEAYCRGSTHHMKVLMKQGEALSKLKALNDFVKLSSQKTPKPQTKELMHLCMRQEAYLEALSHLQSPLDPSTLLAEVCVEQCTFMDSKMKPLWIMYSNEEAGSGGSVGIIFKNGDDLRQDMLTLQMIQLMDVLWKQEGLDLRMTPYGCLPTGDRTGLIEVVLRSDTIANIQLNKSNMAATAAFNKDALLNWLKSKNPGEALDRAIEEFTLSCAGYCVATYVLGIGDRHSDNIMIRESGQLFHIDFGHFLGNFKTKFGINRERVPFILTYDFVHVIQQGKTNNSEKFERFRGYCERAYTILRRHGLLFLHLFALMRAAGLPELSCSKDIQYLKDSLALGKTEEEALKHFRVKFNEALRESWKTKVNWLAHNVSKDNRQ
Protocol: as §1, §2, §3, §4, §5

PI3K gamma = target: T3, PI3K gamma (Homo sapiens, UniProt P48736); assay: PI3 kinase assay (Kinase-Glo luminescence), PI3K gamma; conditions: Enzymatic Data; read-out: PI3K gamma IC50 [umol]
T3 construct: PI3Kγ BV-950 p110g(D144aa)-C-Term His Tag; His tag (C); made in house; host or cells: construct from the Roger Williams lab (MRC LMB) in pVL1393; baculovirus; Tn5 (Trichoplusia ni) or TiniPro insect cells
T3 sequence (P48736 144-1102 limits assumed): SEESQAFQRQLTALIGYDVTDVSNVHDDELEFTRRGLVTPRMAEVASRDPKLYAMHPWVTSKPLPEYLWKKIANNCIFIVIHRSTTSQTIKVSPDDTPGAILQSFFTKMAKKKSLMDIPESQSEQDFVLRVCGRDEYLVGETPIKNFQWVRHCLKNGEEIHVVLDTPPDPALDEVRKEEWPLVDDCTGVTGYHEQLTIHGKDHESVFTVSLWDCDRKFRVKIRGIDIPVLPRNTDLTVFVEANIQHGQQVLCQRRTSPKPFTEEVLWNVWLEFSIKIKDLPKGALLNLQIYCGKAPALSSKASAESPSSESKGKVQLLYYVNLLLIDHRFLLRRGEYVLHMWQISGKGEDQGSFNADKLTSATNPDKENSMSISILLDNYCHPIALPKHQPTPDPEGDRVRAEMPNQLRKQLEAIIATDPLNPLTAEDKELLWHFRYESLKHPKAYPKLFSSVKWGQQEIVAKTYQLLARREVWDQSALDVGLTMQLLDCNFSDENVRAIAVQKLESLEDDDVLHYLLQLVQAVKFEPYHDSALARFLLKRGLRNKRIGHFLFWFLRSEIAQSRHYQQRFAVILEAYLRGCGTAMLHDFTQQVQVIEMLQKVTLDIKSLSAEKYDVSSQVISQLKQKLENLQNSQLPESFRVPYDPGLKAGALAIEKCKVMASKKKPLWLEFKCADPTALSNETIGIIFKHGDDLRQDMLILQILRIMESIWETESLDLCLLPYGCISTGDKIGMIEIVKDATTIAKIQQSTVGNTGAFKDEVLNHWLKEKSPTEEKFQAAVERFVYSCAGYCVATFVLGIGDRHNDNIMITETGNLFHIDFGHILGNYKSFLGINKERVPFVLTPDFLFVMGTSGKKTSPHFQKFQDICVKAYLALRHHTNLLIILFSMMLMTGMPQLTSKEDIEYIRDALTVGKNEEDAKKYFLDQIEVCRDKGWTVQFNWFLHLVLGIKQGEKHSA
Protocol: as §1, §2, §4

PI3K alfa = target: T4, PI3K alfa (Homo sapiens, UniProt P42336); assay: PI3 kinase assay (Kinase-Glo luminescence), PI3K alfa; conditions: Enzymatic Data; read-out: PI3K alfa IC50 [umol]
T4 construct: for the p110-a subunit (with a deletion of the first 20 amino acids); His tag (C); made in house; host or cells: baculovirus; Tn5 (Trichoplusia ni) or TiniPro insect cells
T4 sequence (P42336 with tags, fused parts or gaps limits assumed): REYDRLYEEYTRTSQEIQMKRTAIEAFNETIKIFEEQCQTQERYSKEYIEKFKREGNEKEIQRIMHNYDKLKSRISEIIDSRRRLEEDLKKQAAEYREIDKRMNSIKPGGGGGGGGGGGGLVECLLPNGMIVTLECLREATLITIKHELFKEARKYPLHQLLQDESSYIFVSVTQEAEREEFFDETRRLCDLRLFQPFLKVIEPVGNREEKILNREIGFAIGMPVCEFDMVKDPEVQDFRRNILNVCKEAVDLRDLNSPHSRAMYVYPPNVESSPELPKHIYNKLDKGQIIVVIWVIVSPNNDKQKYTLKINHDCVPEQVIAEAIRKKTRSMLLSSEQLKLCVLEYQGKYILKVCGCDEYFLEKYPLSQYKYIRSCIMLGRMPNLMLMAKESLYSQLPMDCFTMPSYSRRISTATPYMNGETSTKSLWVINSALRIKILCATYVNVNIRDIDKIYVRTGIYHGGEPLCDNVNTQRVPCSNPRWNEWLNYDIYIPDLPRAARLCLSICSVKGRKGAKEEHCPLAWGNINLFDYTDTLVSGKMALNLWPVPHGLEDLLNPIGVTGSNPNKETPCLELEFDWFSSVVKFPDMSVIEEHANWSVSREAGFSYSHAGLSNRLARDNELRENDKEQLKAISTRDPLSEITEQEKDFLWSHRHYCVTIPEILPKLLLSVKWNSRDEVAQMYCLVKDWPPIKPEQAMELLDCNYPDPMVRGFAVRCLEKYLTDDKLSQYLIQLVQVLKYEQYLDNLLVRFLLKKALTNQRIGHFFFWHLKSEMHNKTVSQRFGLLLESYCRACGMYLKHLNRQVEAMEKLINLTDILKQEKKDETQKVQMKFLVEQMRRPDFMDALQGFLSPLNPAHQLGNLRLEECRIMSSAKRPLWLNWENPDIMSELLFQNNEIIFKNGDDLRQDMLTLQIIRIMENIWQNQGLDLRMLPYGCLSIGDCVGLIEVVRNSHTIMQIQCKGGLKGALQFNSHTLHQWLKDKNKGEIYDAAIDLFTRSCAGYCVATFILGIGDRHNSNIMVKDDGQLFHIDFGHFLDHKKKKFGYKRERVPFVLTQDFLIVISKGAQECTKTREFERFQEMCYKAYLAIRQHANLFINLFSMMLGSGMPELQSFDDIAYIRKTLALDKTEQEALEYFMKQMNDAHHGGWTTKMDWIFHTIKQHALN
Protocol: as §1, §2, §3, §4, §5

Compound	IC50 (PI3K beta) [nM]	IC50 (PI3K delta) [nM]	IC50 (PI3K gamma) [nM]	IC50 (PI3K alfa) [nM]
Nc1ncc(-c2ccc3ncc(-c4ccc(C(=O)N5CCN(Cc6ccncc6)CC5)cc4)n3n2)cc1C(F)(F)F [Example 136, {4-[6-(6-Amino-5-trifluoro-methyl-pyridin-3-yl)-imidazo [1,2-b]pyridazin-3-yl]-phenyl}-(4-pyridin-4-ylmethyl-piperazin-1-yl)-methanone]	1200	52	1530	36
COc1ccc(-c2cnc3ccc(-c4cnc5[nH]ccc5c4)nn23)cc1OC [Example 42, 3-(3,4-Dimethoxy-phenyl)-6-(1H-pyrrolo[2,3-b]pyridin-5-yl)-imidazo [1,2-b] pyridazine]	> 9100	624	> 9100	635
COc1cc(-c2ccc3ncc(-c4cnc(N)c(C(F)(F)F)c4)n3n2)ccc1OCCCNC(=O)C(C)C [Example 51]	1390	886	6050	92
CC(=O)NCCOc1ccc(-c2ccc3ncc(-c4cnc(N)c(C(F)(F)F)c4)n3n2)cc1 [Example 75, N-(2-{4-[3-(6-Amino-5-trifluoro-methyl-pyridin-3-yl)-imidazo [1,2-b]pyridazin-6-yl]-phenoxy}-ethyl)-acetamide]	651	135	3090	75
Nc1ncc(-c2ccc3ncc(-c4ccc(C(=O)N5CCN(Cc6ccc(F)cc6)CC5)c(F)c4)n3n2)cc1C(F)(F)F [Example 114, {4-[6-(6-Amino-5-trifluoromethyl-pyridin-3-yl)-imidazo [1,2-b]pyridazin-3-yl]-2-fluoro-phenyl}-[4-(4-fluoro-benzyl)-piperazin-1-yl]-methanone]	4070	829	1440	140
COc1ccc(-c2ccc3ncc(-c4cnc5[nH]ccc5c4)n3n2)cc1 [Example 47, 6-(4-Methoxy-phenyl)-3-(1H-pyrrolo [2,3-b]pyridin-5-yl)-imidazo [1,2-b] pyridazine]	> 9100	3840	> 9100	2720
Nc1ncc(-c2cnc3ccc(-c4ccc(OCCN5CCCC5=O)cc4)nn23)cc1C(F)(F)F [Example 97, 1-(2-{4-[3-(6-Amino-5-trifluoro-methyl-pyridin-3-yl)-imidazo [1,2-b]pyridazin-6-yl]-phenoxy}-ethyl)-pyrrolidin-2-one]	1550	56	1020	75
COc1ccc(-c2ccc3ncc(-c4cnc5[nH]ccc5c4)n3n2)cc1F [Example 49, 6-(3-Fluoro-4-methoxy-phenyl)-3-(1H-pyrrolo [2,3-b]pyridin-5-yl)-imidazo [1,2-b] pyridazine]	> 9100	4810	6040	1620
CC(=O)NCCCOc1ccc(-c2ccc3ncc(-c4cnc(N)c(C(F)(F)F)c4)n3n2)cc1 [Example 71, N-(3-{4-[3-(6-Amino-5-trifluoro-methyl-pyridin-3-yl)-imidazo [1,2-b]pyridazin-6-yl]-phenoxy}-propyl)-acetamide]	2650	739	8510	170

These reach a lower IC50 (PI3K beta). Values come first.

IC50 (PI3K beta) [nM]	IC50 (PI3K delta) [nM]	IC50 (PI3K gamma) [nM]	IC50 (PI3K alfa) [nM]	Compound
378	282	7070	154	CS(=O)(=O)Nc1ccc(-c2cnc3ccc(-c4cnc(N)c(C(F)(F)F)c4)nn23)cc1 [Example 45, N-{4-[6-(6-Amino-5-trifluoro-methyl-pyridin-3-yl)-imidazo [1,2-b]pyridazin-3-yl]-phenyl}-methane-sulfonamide]
233	56	2020	28	CC(C)S(=O)(=O)c1ccc(-c2cnc3ccc(-c4cnc(N)c(C(F)(F)F)c4)nn23)cc1 [Example 72, 5-{3-[4-(Propane-2-sulfonyl)-phenyl]-imidazo[1,2-b]pyridazin-6-yl}-3-trifluoro-methyl-pyridin-2-lamine]
217	10	446	9	COc1cc(-c2cnc3ccc(-c4cnc(N)c(C(F)(F)F)c4)nn23)ccc1C(=O)N1CCN(Cc2cccnc2)CC1 [Example 117, {4-[6-(6-Amino-5-trifluoro-methyl-pyridin-3-yl)-imidazo [1,2-b]pyridazin-3-yl]-2-methoxy-phenyl}-(4-pyridin-3-ylmethyl-piperazin-1-yl)-methanone]
210	57	1160	15	Nc1ncc(-c2ccc3ncc(-c4ccc(C(=O)NCCN5CCOCC5)cc4)n3n2)cc1C(F)(F)F [Example 80, 4-[6-(6-Amino-5-trifluoro-methyl-pyridin-3-yl)-imidazo [1,2-b]pyridazin-3-yl]-N-(2-morpholin-4-yl-ethyl)-benzamide]
154	26	453	6	COc1cc(-c2ccc3ncc(-c4cnc(N)c(C(F)(F)F)c4)n3n2)ccc1OCCCN1CCNC1=O [Example 164, 1-(3-{4-[3-(6-Amino-5-trifluoro-methyl-pyridin-3-yl)-imidazo [1,2-b]pyridazin-6-yl]-2-methoxy-phenoxy}-propyl)-imidazolidin-2-one]
135	27	712	37	Nc1ncc(-c2ccc3ncc(-c4ccc5c(cnn5CCCN5CCOCC5)c4)n3n2)cc1C(F)(F)F [Example 140, 5-{3-[1-(3-Morpholin-4-yl-propyl)-1H-indazol-5-yl]-imidazo [1,2-b]pyridazin-6-yl}-3-trifluoro-methyl-pyridin-2-ylamine]
94	26	419	24	Nc1ncc(-c2ccc3ncc(-c4ccc(C(=O)NCCCN5CCOCC5)c(F)c4)n3n2)cc1C(F)(F)F [Example 100, 4-[6-(6-Amino-5-trifluoro-methyl-pyridin-3-yl)-imidazo [1,2-b]pyridazin-3-yl]-2-fluoro-N-(3-morpholin-4-yl-propyl)-benzamide]
73	14	400	8	Nc1ncc(-c2ccc3ncc(-c4ccc(C(=O)NCCn5ccnc5)cc4F)n3n2)cc1C(F)(F)F [Example 156, 4-[6-(6-Amino-5-trifluoro-methyl-pyridin-3-yl)-imidazo [1,2-b]pyridazin-3-yl]-3-fluoro-N-(2-imidazol-1-yl-ethyl)-benzamide]
3	17	479	8	Nc1cnc(-c2cnc3ccc(-c4cnc(N)c(C(F)(F)F)c4)nn23)cn1 [Example 66, 5-[6-(6-Amino-5-trifluoro-methyl-pyridin-3-yl)-imidazo [1,2-b]pyridazin-3-yl]-pyrazin-2-ylamine]
